Reference: PubChem BioAssay (NCI)
Values joined by “and” are separate entries in the source; they are usually repeats but may differ in a detail not shown here. Identical values can stand only once.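 Method: 48-hour compound exposure of cells in 96-well plates, five concentrations, linear interpolation of endpoints. GI50 is the concentration that inhibits growth by half. TGI denotes the concentration required for complete inhibition of growth.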

Columns and labels:
Assay in all cases: NCI anticancer screen, dose series, 48 h
HCT-15 colon = system: HCT-15 colon
UO-31 renal = system: UO-31 renal
OVCAR-5 ovarian = system: OVCAR-5 ovarian
IGROV1 ovarian = system: IGROV1 ovarian
SF-268 CNS = system: SF-268 CNS
MALME-3M melanoma = system: MALME-3M melanoma
NCI/ADR-RES ovarian = system: NCI/ADR-RES ovarian
ACHN renal = system: ACHN renal
M14 melanoma = system: M14 melanoma
SR leukemia = system: SR leukemia

Row | SMILES | GI50 (HCT-15 colon) | TGI (HCT-15 colon) | GI50 (UO-31 renal) | TGI (UO-31 renal) | GI50 (OVCAR-5 ovarian) | TGI (OVCAR-5 ovarian) | GI50 (IGROV1 ovarian) | TGI (IGROV1 ovarian) | GI50 (SF-268 CNS) | TGI (SF-268 CNS) | GI50 (MALME-3M melanoma) | TGI (MALME-3M melanoma) | GI50 (NCI/ADR-RES ovarian) | TGI (NCI/ADR-RES ovarian) | GI50 (ACHN renal) | TGI (ACHN renal) | GI50 (M14 melanoma) | TGI (M14 melanoma) | TGI (SR leukemia)
1 | C/C(CC(=O)NNc1ccc([N+](=O)[O-])cc1)=N\Nc1ccc([N+](=O)[O-])cc1 | 19.7 µM | > 100 µM | 1.88 µM | > 100 µM | 99.4 µM | > 100 µM | 14.1 µM | > 100 µM | 13.4 µM | > 100 µM | 10.6 µM | 66.5 µM | 15.1 µM | > 100 µM | 5.45 µM | > 100 µM | 2.11 µM | 18.3 µM | –
2 | COC(=O)N/N=C(/CCN1CCCC1)CC(c1ccccc1)c1c(O)c2ccccc2oc1=O (stereo unspecified) | – | > 100 µM | – | > 100 µM | – | > 100 µM | – | > 100 µM | – | > 100 µM | – | > 100 µM | – | – | – | > 100 µM | – | > 100 µM | > 100 µM
3 | C=C[C@]1(C)CCC2=C(CCC3C2(C)CCC[C@]3(C)CO)C1 (stereo partly specified) | – | > 100 µM | – | > 100 µM | – | > 100 µM | – | > 100 µM | – | > 100 µM | – | > 100 µM | – | – | – | > 100 µM | – | > 100 µM | > 100 µM
4 | Oc1ccc(CNCc2ccccc2)c2cccnc12 | – | > 100 µM | – | > 24.4 µM | – | 99.2 µM | – | > 100 µM | – | > 65.6 µM | – | – | – | 16.9 µM | – | 22.9 µM | – | 12 µM | > 100 µM
5 | CC(=O)NC(CCCCNC(=O)N(CCCl)N=O)C(=O)NCc1ccccc1 (stereo unspecified) | – | > 100 µM | – | > 100 µM | – | – | – | > 100 µM | – | > 100 µM | – | > 100 µM | – | – | – | > 100 µM | – | > 100 µM | > 100 µM
6 | O=C1C(=O)N(C(=O)c2ccc(Cl)c(Cl)c2)c2ccc(Cl)cc21 | – | – | – | > 100 µM | – | > 100 µM | – | > 100 µM | – | > 100 µM | – | – | – | – | – | > 100 µM | – | > 100 µM | > 100 µM
7 | CC(=O)O[C@H]1C(=O)O[C@@H]2C[C@H]3C(C)=CC(=O)[C@@H](O)[C@]3(C)[C@H]3[C@@]4(O)OC[C@]32[C@@H]1[C@@H](C)[C@H]4O | 0.0399 µM | 0.738 µM and 1.03 µM | 0.0958 µM | 1.21 µM and 4.45 µM | 0.0588 µM | 1.11 µM and 3.51 µM | < 0.01 µM | 1.4 µM and 0.247 µM | 0.0173 µM | 0.0585 µM and 0.184 µM | < 0.01 µM | 0.062 µM and 0.0429 µM | 0.844 µM | 15.2 µM and 51.4 µM | – | 0.394 µM | – | 0.0838 µM | –
8 | COc1cc(-c2cc(=O)c3ccccc3o2)ccc1N | – | > 100 µM | – | > 100 µM | – | > 100 µM | – | > 100 µM | – | > 100 µM | – | > 100 µM | – | – | – | > 100 µM | – | > 100 µM | –
9 | COc1cc2nc(Sc3c([N+](=O)[O-])ncn3C)[nH]c2cc1OC | – | > 100 µM | – | > 100 µM | – | > 100 µM | – | > 100 µM | – | 69.9 µM | – | > 100 µM | – | – | – | > 100 µM | – | > 100 µM | 60.2 µM
10 | Cc1n[nH]c(=S)n1/N=C/c1ccc(F)c(Oc2ccccc2)c1 | 49.7 µM | > 100 µM | 50 µM | > 100 µM | > 100 µM | > 100 µM | 62.3 µM | > 100 µM | 28.4 µM | > 100 µM | 65.7 µM | > 100 µM | 33.2 µM | > 100 µM | > 100 µM | > 100 µM | 36.9 µM | > 100 µM | –
